The subject of experiment [1] is RAW264.7 cells. Briefly: LXR target, cytokine and SENP gene expression in LPS-stimulated RAW264.7 cells. The class given is cell-based, mouse. How it is done: FIGS. 3A-3D: Comparison with LXR agonist. […] FIGS. 3C and 3D show log 2 fold change of SENP3 expression in RAW264.7 cells mRNAseq and q-PCR.
Quantitative RT-PCR: Total RNA was extracted from EL4 or RAW264.7 cells using RNeasy Plus Micro Kit (Qiagen) and the RNA was reverse transcribed using the ABI reverse transcription kit (Applied Biosystems/Thermo Fisher Scientific, Waltham MA). Quantitative PCR was performed with a 7900HT Fast Real Time PCR System (Applied Biosystems) using SYBR green (Roche).
mRNA sequencing analysis: RAW264.7 cells RNA extraction protocol for RNA seq was derived from Qiagen Kit-74106. Total RNA was quantified using the Qubit 2.0 Fluorometer (Invitrogen, Carlsbad, CA) and run on the Agilent 2100 Bioanalyzer (Agilent Technologies, Santa Clara, CA) for quality assessment. RNA samples of good quality with RNA Integrity Number (RIN)>8.0 were further processed. A RNase-free working environment was maintained and RNase-free tips, Eppendorf tubes and plates were utilized for the subsequent steps. Messenger RNA was selectively isolated from total RNA (300 ng input) using poly-T oligos attached to magnetic beads and converted to sequence-ready libraries using the TruSeq stranded mRNA sample prep protocol (Cat. #: RS-122-2101, Illumina, San Diego, CA). The final libraries were validated on the bioanalyzer DNA chips and qPCR quantified using primers that recognize the illumina adaptors. The libraries were then pooled at equimolar ratios, quantified using qPCR and loaded onto the NextSeq 500 flow cell at 1.8 pM final concentration. They were sequenced using the high-output, paired-end, 75-bp chemistry. Demultiplexed and quality filtered raw reads (fastq) generated from the NextSeq 500 were trimmed (adaptor sequences) using Flexbar 2.4 and aligned to the mouse reference database (mm9) using TopHat version 2.0.9 (Trapnell et al., 2009). HTseq-count version 0.6.1 was used to generate gene counts and differential gene expression analysis was performed using Deseq2 (Anders and Huber, 2010).

The target in experiment [2] is T1, LXRα LBD (Homo sapiens, UniProt Q13133).
T1 construct: 10 μM of the apo protein (LXRα LBD and PPARγ LBD) was mixed with 1:10 molar excess of ligand
T1 sequence (Q13133 209-447 limits assumed): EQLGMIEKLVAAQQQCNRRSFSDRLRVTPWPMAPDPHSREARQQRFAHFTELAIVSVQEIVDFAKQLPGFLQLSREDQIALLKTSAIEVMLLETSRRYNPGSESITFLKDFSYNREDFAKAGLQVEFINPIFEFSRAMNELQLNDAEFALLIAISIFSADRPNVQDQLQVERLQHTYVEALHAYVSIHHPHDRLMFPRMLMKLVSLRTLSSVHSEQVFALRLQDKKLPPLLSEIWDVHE
Nature of the experiment: Differential HDX-MS of LXRα LBD. The experiment is classed as binding. The following applies: 1:10 molar excess of ligand. How it is done: Hydrogen-deuterium exchange (HDX) detected by mass spectrometry (MS): Solution-phase amide HDX experiments were carried out with a fully automated system (CTC HTS PAL, LEAP Technologies, Carrboro, NC; housed inside a 4° C. cabinet) as described previously with the modifications described below^41.
Peptide Identification: Peptides were identified using tandem MS (MS/MS) experiments performed with a QExactive (ThermoFisher, San Jose, CA) over a 70 min gradient. Product ion spectra were acquired in a data-dependent mode and the five most abundant ions were selected for the product ion analysis per scan event. […]
Hydrogen/deuterium exchange (HDX) analysis: 10 μM of the apo protein (LXRα LBD and PPARγ LBD) was mixed with 1:10 molar excess of ligand and incubated for 2 hours at 4° C. for complex formation before subjecting them to HDX analysis. […] The intensity weighted mean m/z centroid value of each peptide envelope was calculated and subsequently converted into a percentage of deuterium incorporation. […] In the absence of a fully deuterated control, 100% deuterium incorporation was calculated theoretically, and corrections for back-exchange were made on the basis of an estimated 70% deuterium recovery and accounting for 80% final deuterium concentration in the sample (1:5 dilution in D2O HDX buffer). […]

The structures appear in SMILES notation.

For `Cc1cc(CN2CCN(Cc3ccncc3)CC2)ccc1-c1ccc(C(O)(C(F)(F)F)C(F)(F)F)cc1` [SR1903, 1,1,1,3,3,3-hexafluoro-2-(2′-methyl-4′-((4-(pyridin-4-ylmethyl)piperazin-1-yl)methyl)-[1,1′-biphenyl]-4-yl)propan-2-ol], the “expression of ACACA and FASN” value in experiment [1] (LPS-stimulated RAW264.7 cells) was “increased”. In addition, in experiment [1] (LPS-stimulated RAW264.7 cells, RNA sequencing), the “expression of LXR target genes including ABCG1 and SCD” value was “increased the expression”. Besides, the “expression of IL6 and IL33” value in experiment [1] (LPS-stimulated RAW264.7 cells, RNA sequencing, confirmed by qPCR) is reported as “robustly dampened”. In experiment [1] (LPS-stimulated RAW cells, RNA sequencing), the “expression of SENP2 and SENP6” value was “repressed”. For the same molecule, in experiment [1] (LPS-stimulated RAW cells, RNA sequencing, qPCR), the “expression of SENP3” value is “increased the expression”. Moreover, in experiment [2], the “deuterium exchange of LXRα LBD” value was “makes a direct interaction with the receptor”.

The values above are taken from patent US12370193B2, “Method of inhibiting TREM-1” (UNIVERSITY OF FLORIDA RESEARCH FOUNDATION, INCORPORATED, priority 2019, dated 2025).
